Values of other authors, collected in US11325978B2, “Compositions and methods for treating beta-globinopathies” (priority 2018, dated 2022).

Test system: RIOK3
Settings: collection of 72 inhibitors against 456 human kinases (Davis et al. 2011)

COc1cc(Nc2c(C#N)cnc3cc(OCCCN4CCN(C)CC4)c(OC)cc23)c(Cl)cc1Cl [bosutinib, Bosutinib]
inhibition of RIOK3 kinase activity: inhibit RIOK3 kinase activity
